# Reference: patent US10829464B2, “Benzoheterocyclic alkylamine compounds and use thereof” (priority 2016, dated 2020)
# Tested on: S. aureus strain Newman
# Assay: IC50 determination of inhibition of staphyloxanthin synthesis
# Type: cell-based
# Conditions: Staphylococcus aureus; S. aureus strain Newman, Table 1; read-out: IC50, inhibitory activity on staphyloxanthin synthesis
# Description: Selection of compound concentrations: based on the preliminary screening results, the ability of each compound to inhibit staphyloxanthin synthesis was determined. […] According to the assay results, 10 different concentration gradients were designed for each compound, such that the ability to inhibit staphyloxanthin synthesis comprised substantially from 0% to 100%.
# Culture of the strains: single colonies of strain Newman and crtN mutant strain were picked from TSA plates, added into test tubes containing 4 mL of sterile TSB medium, and cultured at 37° C. and 250 rpm for 12 h for later use.
# The relative level of staphyloxanthin synthesis at each concentration of the compound of the invention=A450 (sample)/A450 (negative control)*100%. With the molar concentration of the compound as the abscissa and the relative level of staphyloxanthin synthesis as the ordinate, a curve fitting of inhibitor concentration-inhibition rate (log(inhibitor) vs response) was performed in Graphpad prism 5.0 software, and the IC50 of the compound for inhibiting staphyloxanthin synthesis was calculated by software based on the fitting results.
# S. aureus was selected for IC50 determination with respect to activity of inhibiting staphyloxanthin synthesis. […]
row,Structure (SMILES),IC50 [µM]
1,CN(C/C=C/C1CCCCC1)Cc1coc2ccccc12 [Compound IA-32],> 1
2,FC(F)(F)c1ccc(/C=C/CNCc2coc3ccccc23)cc1 [Compound IB-1],> 1
3,CN(CC#Cc1ccc(-c2ccccc2)cc1)Cc1coc2ccccc12 [Compound ID-1],> 1
4,"CN(C/C=C/c1cccs1)Cc1coc2ccccc12 [Compound IA-33, (E)-N-methyl-N-[(benzofuran-3-yl)methylene]-3-thiophen-2-en-1-amine]",> 1
5,"CN(C/C=C/c1ccc(F)cc1)Cc1coc2ccccc12 [Compound IA-4, (E)-N-methyl-N-[(benzofuran-3-yl)methylene]-3-(4-fluorophenyl)prop-2-en-1-amine]",0.0741 ± 0.0027
6,"CN(C/C=C/c1ccc(C(F)(F)F)cc1)Cc1coc2ccccc12 [Compound IA-2, (E)-N-methyl-N-[(benzofuran-3-yl)methylene]-3-(4-trifluoromethylphenyl)-prop-2-en-1-amine]",0.0098 ± 0.0003
7,"COc1cccc(/C=C/CN(C)Cc2coc3ccccc23)c1 [Compound IA-20, (E)-N-methyl-N-[(benzofuran-3-yl)methylene]-3-(3-methoxyphenyl)-prop-2-en-1-amine]",> 1
8,"CCN(C/C=C/c1ccc(C(F)(F)F)cc1)Cc1coc2ccccc12 [Compound IB-2, (E)-N-ethyl-N-[(benzofuran-3-yl)methylene]-3-(4-trifluoromethylphenyl)-prop-2-en-1-amine]",> 1
9,"CCOc1ccc(/C=C/CN(C)Cc2coc3ccccc23)cc1 [Compound IA-17, (E)-N-methyl-N-[(benzofuran-3-yl)methylene]-3-(4-ethoxyphenyl)-prop-2-en-1-amine]",> 1
10,"CN(C/C=C/c1ccc(C#N)cc1)Cc1coc2ccccc12 [Compound IA-24, (E)-N-Methyl-N-[(benzofuran-3-yl)methylene]-3-(4-cyanophenyl)-prop-2-en-1-amine]",0.0801 ± 0.0047
11,"CN(C/C=C/c1ccc(C(F)F)cc1)Cc1coc2ccccc12 [Compound IA-6, (E)-N-methyl-N-[(benzofuran-3-yl)methylene]-3-(4-difluoromethylphenyl)-prop-2-en-1-amine]",0.0064 ± 0.0001
12,"CN(C/C=C/c1cccc(F)c1)Cc1coc2ccccc12 [Compound IA-19, (E)-N-methyl-N-[(benzofuran-3-yl)methylene]-3-(3-fluorophenyl)-prop-2-en-1-amine]",> 1
13,"CN(C/C=C/c1ccc(Cl)cc1Cl)Cc1coc2ccccc12 [Compound IA-11, (E)-N-methyl-N-[(benzofuran-3-yl)methylene]-3-(2,4-dichlorophenyl)prop-2-en-1-amine]",0.0062 ± 0.0005
14,"CN(C/C=C/c1ccc2ccccc2c1)Cc1coc2ccccc12 [Compound IA-26, (E)-N-methyl-N-[(benzofuran-3-yl)methylene]-3-(2-naphthyl)-prop-2-en-1-amine]",0.0064 ± 0.0006
15,C/C=C/CN(C)Cc1coc2ccccc12 [Compound IA-23],> 1
16,"CN(C/C=C/c1ccc(C(F)(F)F)cc1)Cc1cc2ccccc2o1 [Compound IF-1, (E)-N-(benzofuran-2-ylmethyl)-N-methyl-3-(4-(trifluoromethyl)phenyl)prop-2-en-1-amine]",0.0703 ± 0.0052
17,"COc1ccc(/C=C/CN(C)Cc2coc3ccccc23)c(F)c1 [Compound IA-35, (E)-N-methyl-N-[(benzofuran-3-yl)methylene]-3-(2-fluoro-4-methoxyphenyl)-prop-2-en-1-amine]",> 1

row,Structure (SMILES),IC50 [µM]
1,"CC(C)N(C/C=C/c1ccc(C(F)(F)F)cc1)Cc1coc2ccccc12 [Compound IB-3, (E)-N-isopropyl-N-[(benzofuran-3-yl)methylene]-3-(4-trifluoromethylphenyl)-prop-2-en-1-amine]",> 1
2,"CN(C/C=C/c1ccccc1[N+](=O)[O-])Cc1coc2ccccc12 [Compound IA-22, (E)-N-methyl-N-[(benzofuran-3-yl)methylene]-3-(2-nitrophenyl)-prop-2-en-1-amine]",> 1
3,"CN(C/C=C/c1ccccc1)Cc1coc2ccccc12 [Compound IA-1, (E)-N-methyl-N-[(benzofuran-3-yl)methylene]-3-phenylprop-2-en-1-amine]",> 1
4,"CN(C/C=C/c1ccccc1F)Cc1coc2ccccc12 [Compound IA-28, (E)-N-methyl-N-[(benzofuran-3-yl)methylene]-3-(2-fluorophenyl)-prop-2-en-1-amine]",> 1
5,"CN(C/C=C/c1ccc(Cl)cc1)Cc1coc2ccccc12 [Compound IA-3, (E)-N-methyl-N-[(benzofuran-3-yl)methylene]-3-(4-chlorophenyl)prop-2-en-1-amine]",0.0049 ± 0.0001
6,"CN(C/C=C/c1ccccc1C(F)(F)F)Cc1coc2ccccc12 [Compound IA-30, (E)-N-methyl-N-[(benzofuran-3-yl)methylene]-3-(2-trifluoromethylphenyl)-prop-2-en-1-amine]",> 1
7,"CN(C/C=C/c1ccc(C(F)(F)F)c(F)c1)Cc1coc2ccccc12 [Compound IA-9, (E)-N-methyl-N-[(benzofuran-3-yl)methylene]-3-(3-fluoro-4-trifluoromethyl-phenyl)prop-2-ene-1-the amine]",> 1
8,"CN(C/C=C/c1cccc(C(F)(F)F)c1)Cc1coc2ccccc12 [Compound IA-18, (E)-N-methyl-N-[(benzofuran-3-yl)methylene]-3-(3-trifluoromethylphenyl)-prop-2-en-1-amine]",> 1
9,"CN(C/C=C/C1CCCC1)Cc1coc2ccccc12 [Compound IA-7, (E)-N-methyl-N-[(benzofuran-3-yl)methylene]-3-(4-cyclopentyl)prop-2-en-1-amine]",0.397 ± 0.0203
10,"CN(CC/C=C/c1ccc(-c2ccccc2)cc1)Cc1coc2ccccc12 [Compound IA-40, (E)-4-([1,1′-biphenyl]-4-yl)-N-(benzofuran-3-ylmethyl)-N-methylbut-3-en-1-amine]",> 1
11,"CN(C/C=C/c1ccc(C(F)(F)F)cc1)Cc1cc2ccccc2s1 [Compound IF-2, (E)-N-(benzo[b]thiophen-2-ylmethyl)-N-methyl-3-(4-(trifluoromethyl)phenyl)prop-2-en-1-amine]",0.0953 ± 0.0016
12,"CN(C/C=C/C=C/c1ccc(-c2ccccc2)cc1)Cc1coc2ccccc12 [Compound IA-39, (2E,4E)-5-([1,1′-biphenyl]-4-yl)-N-(benzofuran-3-ylmethyl)-N-methylpenta-2,4-dien-1-amine]",> 1
13,"Cc1ccc(/C=C/CN(C)Cc2coc3ccccc23)cc1 [Compound IA-21, (E)-N-methyl-N-[(benzofuran-3-yl)methylene]-3-(4-methylphenyl)-prop-2-en-1-amine]",0.0099 ± 0.0018
14,"COc1ccc(/C=C/CN(C)Cc2coc3ccccc23)cc1F [Compound IA-38, (E)-N-methyl-N-[(benzofuran-3-yl)methylene]-3-(3-fluoro-4-methoxyphenyl)-prop-2-en-1-amine]",> 1
15,"CN(C/C=C/c1ccc(C(F)(F)F)cc1F)Cc1coc2ccccc12 [Compound IA-31, (E)-N-methyl-N-[(benzofuran-3-yl)methylene]-3-(2-fluoro-4-trifluoromethyl-phenyl)-prop-2-en-1-amine]",0.0092 ± 0.0004
16,"CN(C/C=C/c1ccc(Br)cc1)Cc1coc2ccccc12 [Compound IA-5, (E)-N-methyl-N-[(benzofuran-3-yl)methylene]-3-(4-bromophenyl)prop-2-en-1-amine]",0.0025 ± 0.0003
